Data from PubChem BioAssay (NCI).
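These data come from cells grown in 96-well plates and exposed to compound for 48 hours at five concentrations. The concentration for full growth arrest is given as TGI.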

Tests used:
Assay in all cases: NCI-60 cell line screen, 48 h
[1] = tested on: EKVX NSCLC
[2] = tested on: HT29 colon
[3] = tested on: KM12 colon
[4] = tested on: U251 CNS
[5] = tested on: IGROV1 ovarian
[6] = tested on: K-562 leukemia
[7] = tested on: MCF7 breast
[8] = tested on: PC-3 prostate
[9] = tested on: M14 melanoma
[10] = tested on: HS 578T breast
[11] = tested on: MDA-MB-435
[12] = tested on: OVCAR-8 ovarian
[13] = tested on: UACC-257 melanoma
[14] = tested on: SK-OV-3 ovarian
[15] = tested on: SF-539 CNS
[16] = tested on: MOLT-4 leukemia
[17] = tested on: NCI-H522 lung
[18] = tested on: LOX IMVI melanoma
[19] = tested on: HL-60(TB) leukemia

SMILES | TGI [1] [µM] | TGI [2] [µM] | TGI [3] [µM] | TGI [4] [µM] | TGI [5] [µM] | TGI [6] [µM] | TGI [7] [µM] | TGI [8] [µM] | TGI [9] [µM] | TGI [10] [µM] | TGI [11] [µM] | TGI [12] [µM] | TGI [13] [µM] | TGI [14] [µM] | TGI [15] [µM] | TGI [16] [µM] | TGI [17] [µM] | TGI [18] [µM] | TGI [19] [µM]
COC(=O)C(C)(C)OCc1ccc(C2NC(=O)N(c3cccc(Cl)c3)C(=O)N2c2cccc(Cl)c2)cc1 (centres undefined) | 78.8 | > 100 | > 100 | > 100 | > 100 | > 100 | > 100 | > 100 | > 100 | 44.4 | > 100 | > 100 | > 100 | > 100 | > 100 | > 100 | 76.8 | – | –
CC(=O)Nc1ccc(N=C2C(c3ccccc3)=C(SC3=C(c4ccccc4)C(=Nc4ccc(NC(C)=O)cc4)c4ccccc43)c3ccccc32)cc1 | > 100 | > 100 | 89.5 | > 100 | > 100 | > 100 | > 100 | > 100 | > 100 | – | > 100 | > 100 | > 100 | > 100 | 28.5 | 63 | 97.7 | > 100 | –
O=[N+]([O-])c1ccc2[nH]nc(OCc3ccccn3)c2c1 | > 100 | > 100 | > 100 | > 100 | > 100 | > 100 | – | > 100 | > 100 | > 100 | > 100 | > 100 | > 100 | > 100 | > 100 | > 100 | > 100 | > 100 | > 100
C/C(=C\c1ccccc1)C(=O)NCc1ccc(C(=O)NCCC(C)C)cc1 | > 100 | > 100 | > 100 | > 100 | > 100 | > 100 | > 100 | > 100 | > 100 | – | > 100 | > 100 | > 100 | 94.6 | > 100 | > 100 | > 100 | > 100 | –
Cc1ccc(Cc2n[nH]c(=O)n2-c2ccccc2)cc1 | – | > 100 | > 100 | > 100 | > 100 | > 100 | > 100 | > 100 | – | – | > 100 | > 100 | > 100 | – | > 100 | > 100 | – | – | > 100
COc1ccccc1/C=C(\C#N)C(=O)c1ccccc1 | > 100 | > 100 | > 100 | > 100 | > 100 | > 100 | – | – | > 100 | – | – | > 100 | > 100 | > 100 | > 100 | > 100 | > 100 | > 100 | > 100
CCOC(=O)[C@]12C(=C(c3ccccc3)O[C@H]3C=CCC[C@H]31)C(=O)C(=O)N2c1ccccc1 | – | > 100 | > 100 | 38.6 | – | 84.5 | > 100 | > 100 | > 100 | – | – | > 100 | – | > 100 | > 100 | 61.3 | > 100 | – | –
c1ccc2c(c1)Nc1ccccc1[P+]21c2ccccc2Nc2ccccc21 | 2.74 | 2.9 | – | 1.4 | – | 1.75 | – | 0.609 | 2.23 | 1.36 | 1.27 | 5.39 | – | 0.869 | 0.817 | 1.11 | 0.728 | 2.23 | 0.485
O=C1CCCC2C(O)CCC[C@H]12 (some centres undefined) | > 100 | > 100 | > 100 | > 100 | > 100 | > 100 | > 100 | > 100 | > 100 | > 100 | – | > 100 | > 100 | > 100 | > 100 | > 100 | > 100 | > 100 | > 100
O=[N+]([O-])c1ccc(-c2nc3ccc([N+](=O)[O-])cc3[nH]2)cc1 | > 100 | > 100 | > 100 | 70.1 | > 100 | – | > 100 | 70.7 | > 100 | > 100 | 89.5 | > 100 | > 100 | > 100 | > 100 | > 100 | 88.4 | 67.8 | –
CC(C)C[C@H](NC(=O)[C@H](Cc1ccccc1)NC(=O)CCc1ccccc1)B(O)O | < 0.0216 | < 0.01 | 0.0101 | < 0.0112 | < 0.01 | > 100 | 0.225 | < 0.01 | < 0.01 | < 0.01 | < 0.01 | < 0.01 | < 0.01 | 0.0727 | < 0.01 | 0.665 | < 0.01 | < 0.01 | –
CN(C)c1nc2oc(-c3ccccc3)c(-c3ccccc3)c2c2nncn12 | > 100 | > 100 | > 100 | > 100 | > 100 | > 100 | > 100 | – | > 100 | > 100 | > 100 | > 100 | > 100 | > 100 | > 100 | – | > 100 | > 100 | –
CC(=O)N1CN2C(=O)CCC2c2ccccc21 (centres undefined) | > 100 | > 100 | > 100 | > 100 | > 100 | > 100 | > 100 | > 100 | > 100 | > 100 | > 100 | > 100 | > 100 | > 100 | > 100 | > 100 | > 100 | > 100 | –
O=C1Cc2c([nH]c3c(Cl)cccc23)-c2ccccc2N1 | – | > 100 | > 100 | > 100 | > 100 | > 100 | > 100 | > 100 | > 100 | > 100 | > 100 | > 100 | – | > 100 | > 100 | > 100 | > 100 | > 100 | > 100
CC1=NNC(=O)C1C1CC(c2c[nH]c3ccccc23)=NNC1=S (centres undefined) | > 100 | > 100 | > 100 | > 100 | – | > 100 | – | > 100 | > 100 | > 100 | > 100 | > 100 | > 100 | > 100 | > 100 | > 100 | > 100 | – | > 100
COP(=O)(Cc1ccc(/C=C/C#N)o1)OC | > 100 | > 100 | > 100 | > 100 | > 100 | > 100 | > 100 | – | > 100 | > 100 | > 100 | > 100 | – | > 100 | > 100 | > 100 | > 100 | – | > 100
Cc1ccc(S(=O)(=O)n2c3c(c4ccccc42)CCN2C(=O)C(S(=O)(=O)c4ccccc4)=CCC32)cc1 (centres undefined) | – | 0.48 | 0.645 | 0.404 | 0.36 | 0.673 | 0.656 | 0.562 | – | 9.15 | 0.445 | 0.328 | 0.319 | 2.61 | 0.391 | – | 0.567 | 0.452 | 0.468
N#Cc1c2c(c(Nc3cccc(C(F)(F)F)c3)n3c1nc1ccccc13)CCC2 | > 100 | > 100 | > 100 | > 100 | – | – | – | – | – | – | > 100 | > 100 | > 100 | > 100 | > 100 | > 100 | > 100 | > 100 | –
CCOC(O)(NC(=O)C(C(F)(F)F)C(F)(F)F)C(F)(F)F (centres undefined) | > 100 | > 100 | – | > 100 | > 100 | > 100 | – | > 100 | > 100 | > 100 | > 100 | > 100 | > 100 | – | > 100 | > 100 | – | > 100 | > 100
N#CC(c1nc2ccccc2s1)c1ncnc(Cl)c1[N+](=O)[O-] (centres undefined) | 76.5 | 34.8 | > 100 | 95.7 | 30.5 | – | – | – | 34.3 | – | 83.2 | 34.7 | 41 | > 100 | 61.3 | > 100 | 33.5 | 33.1 | –
O=c1[nH]cnc2c1sc1nc3ccccc3n12 | > 100 | > 100 | 54.9 | > 100 | > 100 | – | > 100 | > 100 | > 100 | > 100 | > 100 | > 100 | > 100 | > 100 | > 100 | > 100 | > 100 | > 100 | –
COc1ccc(/C=C2\C(=O)N(C)C(=O)c3cc(OC)c(OC)cc32)cc1OC | 27.9 | 34.2 | – | > 100 | > 100 | > 100 | > 100 | > 100 | > 100 | – | > 100 | – | > 100 | – | 76.2 | > 100 | 36.4 | 34.1 | 40.1
Cc1nc2ccc(Cl)cc2c2c1CCS2 | – | > 100 | > 100 | > 100 | > 100 | > 100 | > 100 | > 100 | > 100 | > 100 | > 100 | > 100 | > 100 | > 100 | > 100 | 74.3 | > 100 | > 100 | 65
COC(=O)C1=C(C(=O)OC)C(Cc2ccccc2)(OO)OC1=O (centres undefined) | 37.3 | 24.2 | 39.1 | 67.9 | 24.5 | 63.7 | 53.9 | > 100 | > 100 | – | > 100 | > 100 | > 100 | 94.4 | 17.1 | 30.8 | 6.71 | 22.8 | 3.66
CC(C)CC[C@H](O)[C@@H](C)[C@H]1[C@@H](OC2OC(C)C(O)C(O)C2O)C[C@H]2[C@@H]3CC=C4C[C@@H](O)CC[C@]4(C)[C@H]3[C@@H](O)C[C@]12C (some centres undefined) | > 100 | > 100 | – | > 100 | 40.4 | 0.422 | – | > 100 | > 23.4 | 2.36 | > 100 | > 100 | 2.91 | > 100 | 0.578 | 0.508 | > 100 | > 100 | > 100
CN(C)Cc1cc(N=Nc2cccc(Cl)c2)ccc1O | – | 33.7 | 22 | 33.1 | 27.1 | 12.8 | 29 | 38.1 | 25.5 | 29.4 | 15.8 | 28.5 | 29.3 | 37.9 | 33 | 32.5 | 23.9 | 16.6 | 37.4
N#CC1Cc2cc3c(cc21)OCO3 (centres undefined) | > 100 | > 100 | > 100 | > 100 | > 100 | > 100 | > 100 | > 100 | > 100 | > 100 | > 100 | > 100 | > 100 | – | > 100 | > 100 | – | > 100 | –
O=C(NCCCCN(CCCNC(=O)C(F)(F)F)Cc1ccc2ccccc2c1)C(F)(F)F | 35.8 | 26.6 | 32.1 | 67.2 | 32.9 | 37 | 27.8 | – | 30.3 | 38.6 | 35.7 | 36.1 | 33.9 | 55.6 | 29.8 | 49 | 36.7 | 32.7 | > 100
